Laboratory results taken from EP4342890A1, “PLATFORM AND SCAFFOLD FOR FAP TARGETING AGENTS” (Erasmus University Rotterdam Medical Center, priority 2022, dated 2024).

Assays:
FAP [1] = molecular target: T1, FAP (Homo sapiens, UniProt Q12884); experiment: In vitro inhibition assay on human FAP (Z-GP-AMC substrate); assay type: biochemical; details: enzymatic assay; 20 µM Z-GP-AMC, 20 nM FAP; unit inferred
T1 sequence (Q12884 1-760): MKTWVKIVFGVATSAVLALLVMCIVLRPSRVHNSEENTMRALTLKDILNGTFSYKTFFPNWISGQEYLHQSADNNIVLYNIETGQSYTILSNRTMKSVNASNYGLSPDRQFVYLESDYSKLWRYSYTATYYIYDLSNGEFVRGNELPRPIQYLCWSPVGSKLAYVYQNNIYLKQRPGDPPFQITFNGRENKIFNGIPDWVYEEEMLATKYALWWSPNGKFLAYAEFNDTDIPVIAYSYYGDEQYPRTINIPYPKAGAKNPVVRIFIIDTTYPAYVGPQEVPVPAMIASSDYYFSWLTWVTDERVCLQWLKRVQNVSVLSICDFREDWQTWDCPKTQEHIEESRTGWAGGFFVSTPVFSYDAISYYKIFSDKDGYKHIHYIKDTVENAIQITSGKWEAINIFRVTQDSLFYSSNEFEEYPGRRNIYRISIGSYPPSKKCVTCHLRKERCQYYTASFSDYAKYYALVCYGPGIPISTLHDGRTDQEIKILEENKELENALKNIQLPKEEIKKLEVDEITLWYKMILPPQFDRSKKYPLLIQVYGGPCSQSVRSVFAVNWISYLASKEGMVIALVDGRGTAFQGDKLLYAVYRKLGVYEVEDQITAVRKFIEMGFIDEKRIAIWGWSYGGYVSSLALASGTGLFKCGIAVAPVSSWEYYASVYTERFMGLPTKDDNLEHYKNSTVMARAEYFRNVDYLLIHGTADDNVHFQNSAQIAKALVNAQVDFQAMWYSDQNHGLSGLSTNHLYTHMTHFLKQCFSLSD
Description: (§1) Enzymatic activity of human FAP (hFAP) and mouse FAP (mFAP) on the Z-GP-AMC substrate was measured at room temperature on a Hidex microplate reader by monitoring the fluorescence at an excitation wavelength of 360 nm and an emission wavelength of 465 nm. The reaction mixture contained 20 µM substrate, 20 nM FAP, assay buffer (50 mM Tris, 100 mM NaCl, 1 mM EDTA, pH 7.4) and tested compound (serial dilution from 10^-6 to 10^-12) in a total volume of 50 µL.

FAP [2] = molecular target: T1, FAP; experiment: Competitive binding assay against [111In]In-FAPI-46 in HT-1080.hFAP cells; set-up: expressed in transfected cells; host or cells: HT-1080.hFAP cells; details: competition with [111In]In-FAPI-46 in HT-1080.hFAP cells, 37 °C, 1 h; unit inferred
Description: The U-87 MG glioblastoma was cultured at 37 °C and 5% CO2 in Dulbecco's Modified Eagle Medium (DMEM) supplemented with 10 % (v/v) fetal calf serum. HT-1080.hFAP cells were kept in culture in DMEM medium supplemented with fetal bovine serum (10%, FBS) and antibiotic antimycotic (1%, AA) at 37 °C and 5% CO2. For passaging, cells were detached using Trypsin-EDTA 0.05% when reaching 90% confluence and re-seeded at a dilution of 1:4.
Competition binding experiments were conducted by incubation of the [^111In]In-FAPI-46 radioligand with increasing concentrations of eFAP compound in HT-1080.hFAP cells at 37 °C for 1 h. Cells were then washed three times with binding buffer and lysed. The cell-associated radioactivity was measured in a γ-counter. The IC50 values were calculated by fitting the data by non-linear regression using GraphPad Prism.

murine FAP = molecular target: T2, murine FAP (Mus musculus, UniProt P97321); experiment: In vitro inhibition assay on mouse FAP (Z-GP-AMC substrate); assay type: biochemical; details: enzymatic assay; 20 µM Z-GP-AMC, 20 nM FAP; unit inferred
T2 sequence (P97321 1-761): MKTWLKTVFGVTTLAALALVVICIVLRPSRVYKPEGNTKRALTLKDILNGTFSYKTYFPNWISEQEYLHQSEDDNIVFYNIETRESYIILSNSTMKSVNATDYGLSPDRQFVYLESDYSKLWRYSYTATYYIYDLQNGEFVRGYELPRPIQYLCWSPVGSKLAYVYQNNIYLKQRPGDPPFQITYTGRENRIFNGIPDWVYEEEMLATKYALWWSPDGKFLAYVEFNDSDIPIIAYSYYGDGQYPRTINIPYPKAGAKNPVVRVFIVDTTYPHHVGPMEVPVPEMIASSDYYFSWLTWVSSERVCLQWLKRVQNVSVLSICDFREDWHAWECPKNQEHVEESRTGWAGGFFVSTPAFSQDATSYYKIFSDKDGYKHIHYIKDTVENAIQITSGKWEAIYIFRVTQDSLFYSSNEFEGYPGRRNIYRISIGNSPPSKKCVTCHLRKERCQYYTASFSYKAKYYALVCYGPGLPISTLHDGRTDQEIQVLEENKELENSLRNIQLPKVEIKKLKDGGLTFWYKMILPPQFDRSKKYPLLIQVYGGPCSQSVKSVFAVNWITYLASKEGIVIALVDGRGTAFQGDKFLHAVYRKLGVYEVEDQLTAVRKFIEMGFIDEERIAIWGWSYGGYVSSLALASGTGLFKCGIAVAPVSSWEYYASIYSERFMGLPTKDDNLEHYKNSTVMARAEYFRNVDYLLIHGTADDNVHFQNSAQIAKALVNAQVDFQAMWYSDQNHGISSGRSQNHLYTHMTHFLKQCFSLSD
Description: as §1

SMILES: CN(CCCN1CCN(C(=O)CN2CCN(CC(=O)O)CCN(CC(=O)O)CCN(CC(=O)O)CC2)CC1)c1ccc2nccc(C(=O)NCC(=O)N3CC(F)(F)C[C@H]3C#N)c2c1 [FAPI-46, reference compound]
- IC50 (FAP [1]): 2.7 ± 1.7 nM
- IC50 (FAP [2]): 1.6 ± 0.3 nM
- IC50 (murine FAP): 15 ± 2 nM
